For data set [1], the target named is human Somatostatin 4 receptor (SSTR4) (Homo sapiens (Human), UniProt P31391). Kind of data set: cAMP assay with human Somatostatin 4 receptor. The data set is classed as cell-based. To be noted: hSSTR4 expressing H4 cells, inhibition of Forskolin-stimulated cAMP; read-out: SSTR4 agonism EC50. As to the method:
Method description for cAMP assay with human Somatostatin 4 receptor.
The activation of the SSTR4 receptor (Gi coupled) causes an inhibition of intracellular cAMP after stimulation with Forskolin, which can be quantifiable by use of a suitable assay Kit and an adequate plate reader. This technique is used to characterize pharmacological effects of the SSTR4 receptor agonists by use of hSSTR4 expressing H4 cells.
Compounds are dissolved and diluted in DMSO. The final test solution contains […]. The cAMP standard (Lance cAMP 384 Kit; PerkinElmer, Cat #AD0264) is prepared in assay buffer (HBSS with 0.1% BSA, 5 mM HEPES, […], pH 7.4) containing 1% DMSO and the cAMP standard curve is included at least on one plate. Cells are centrifuged and suspended in assay buffer (incl. 1:100 diluted Alexa antibody).
For the assay 5 μl of a cell suspension (approximately 5000 cells/well)—incl. Alexa antibody (diluted 1:100) are added into a 384 well MTP microtitre plate excepting one row or column (depending on the plate layout), which is reserved for the standard curve. Then 2 μl of compound sample is added as concentration response curve (e.g. 1e-5 M to 6e-10 M), usually in triplicates. Each assay contains incubations with vehicle controls instead of compound as controls for non-inhibited cAMP generation (100% CTL; ‘high values’) and incubations with 1 μM Somatosatin as controls for full inhibition and background (0% CTL; ‘low values’). After approximately 10-15 min incubation time 3 μl Forskolin (dissolved in DMSO, final conc. 15 μM) is added. Then the plates are shaken briefly and incubated for 60 min at room temperature. After 60 min 10 μl of the detection mix is added into all wells followed by an additional incubation period of 1 h. The plates are read in a suitable plate reader.
The analysis of the data is based on the “ratio” of the time-resolved fluorescence measurements of donor and acceptor fluorophore (Ex: 320 nm; Em1: 665 nm; Em2: 615 nm; ratio 665/615). From this ratio, cAMP concentrations are calculated from standard curve and the EC50 is estimated by least square curve fit program.

A short description of data set [2]: Metabolic stability in human liver microsomes. In kind it is in vitro ADME. To be noted: pooled human liver microsomes, 37° C., 1 μM test compound, NADPH; for half-life at 1 μM: pH 7.6, read-out: Half-life t1/2. The protocol: The metabolic stability of the compounds according to the invention may be investigated as follows:
The metabolic degradation of the test compound is assayed at 37° C. with pooled human liver microsomes. The final incubation volume of 100 μl per time point contains TRIS buffer pH 7.6 at room temperature (0.1 M), magnesium chloride (5 mM), microsomal protein (1 mg/mL) and the test compound at a final concentration of 1 μM. Following a short preincubation period at 37° C., the reactions are initiated by addition of beta-nicotinamide adenine dinucleotide phosphate, reduced form (NADPH, 1 mM), and terminated by transferring an aliquot into solvent after different time points. After centrifugation (10000 g, 5 min), an aliquot of the supernatant is assayed by LC-MS/MS for the amount of parent compound. The half-life is determined by the slope of the semi-logarithmic plot of the concentration-time profile.

The source of these data is patent US10183940B2, “Aryl and heteroaryl-fused tetrahydro-1,4-oxazepine amides as somatostatin receptor subtype 4 (SSTR4) agonists” (Boehringer Ingelheim International GmbH, priority 2014, dated 2019).

Each structure is given as a SMILES string.

Broadly, the EC50 is the midpoint of the concentration-response curve.

human Somatostatin 4 receptor (SSTR4), sequence (P31391 whole entry): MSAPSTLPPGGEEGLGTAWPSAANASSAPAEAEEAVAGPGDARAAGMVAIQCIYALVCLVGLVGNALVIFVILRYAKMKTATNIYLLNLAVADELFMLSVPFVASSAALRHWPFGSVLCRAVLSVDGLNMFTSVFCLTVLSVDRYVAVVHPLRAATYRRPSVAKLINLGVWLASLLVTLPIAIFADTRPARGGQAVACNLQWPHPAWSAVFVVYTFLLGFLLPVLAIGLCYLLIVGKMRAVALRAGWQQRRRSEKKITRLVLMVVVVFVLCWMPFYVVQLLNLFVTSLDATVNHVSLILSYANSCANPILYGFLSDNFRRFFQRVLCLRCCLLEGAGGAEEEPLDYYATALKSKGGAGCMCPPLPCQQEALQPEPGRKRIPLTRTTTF

For the molecule `Cc1cccn2c(C3(NC(=O)c4cccc5c4OCCNC5)CC3)ncc12` [Example 49], the EC50 in data set [1] came out at 1.5 nM. Further, in data set [2], the half-life at 1 μM was determined as 1.55 h.

With `Cc1nc(C(C)(C)NC(=O)c2cccc3c2OCCNC3)n2cccc(F)c12` [Example 50], the EC50 in data set [1] is 2 nM. In addition, the half-life at 1 μM in data set [2] worked out at 1.38 h.

For `COc1cccn2c(C(C)(C)NC(=O)c3cccc4c3OCCNC4)ncc12` [Example 51], in data set [1], the EC50 was 4.3 nM. The “Half-life t1/2” value in data set [2] was determined as 2.17 h.

`Cc1cccn2c(C(C)(C)NC(=O)c3cccc4c3OCCNC4)nc(C)c12.Cl` [Example 53]: the EC50 in data set [1] was found to be 1.6 nM. In addition, the half-life at 1 μM in data set [2] turned out to be 1.2 h.

For the molecule `CC(C)(NC(=O)c1cccc2c1OCCNC2)c1nc(C2CC2)c2c(F)cccn12` [Example 61], the EC50 in data set [1] turned out to be 6.3 nM. For the same molecule, the half-life at 1 μM in data set [2] came out at 0.75 h.

As for `Cc1cccn2c(C(C)(C)NC(=O)c3cccc4c3OCCNC4)nc(C3CC3)c12` [Example 62], the EC50 in data set [1] was 4 nM. The half-life at 1 μM in data set [2] was determined as 0.533 h.

For `Cc1nc(C(C)(C)NC(=O)c2cccc3c2OCCNC3)c2ccccc2n1` [Example 64], the EC50 in data set [1] was 22.3 nM. Besides, in data set [2], the half-life at 1 μM is above 2.17 h.

Take `Cc1cccn2c(C(C)(C)NC(=O)c3cccc4c3OCCNC4)cnc12` [Example 70]: the EC50 in data set [1] was found to be 11.3 nM. Also, the half-life at 1 μM in data set [2] is above 2.17 h.

On to `Cc1cccn2c(C(C)(C)NC(=O)c3cccc4c3OCCNC4)ccc12` [Example 71], for which, in data set [1], the EC50 amounted to 2.9 nM. Also, the half-life at 1 μM in data set [2] turned out to be 0.183 h.

Take `Cc1cccn2c(C(C)(C)NC(=O)c3nccc4c3OCCNC4)ncc12` [Example 72]: the EC50 in data set [1] was 13.6 nM. For the same molecule, the half-life at 1 μM in data set [2] was above 2.17 h.

Take `Cc1cccn2c(C(C)(C)NC(=O)c3nccc4c3OCCNC4)nc(C)c12` [Example 75]: the EC50 in data set [1] was determined as 10.4 nM. Moreover, in data set [2], the half-life at 1 μM is above 2.17 h.

On to `Cc1cccn2c(C(C)(C)NC(=O)c3ccnc4c3OCCNC4)ncc12` [Example 78], for which the EC50 in data set [1] was 33.6 nM. The half-life at 1 μM in data set [2] is above 2.17 h.

For the molecule `Cc1cccn2c(C(C)(C)NC(=O)c3cncc4c3OCCNC4)ncc12` [Example 79], the EC50 in data set [1] was determined as 31.3 nM. Moreover, in data set [2], the half-life at 1 μM was above 2.17 h.
